This note sets out measurements from US20070254055A1, “Therapeutic Avenanthramide Compounds” (TRUSTEES OF TUFTS COLLEGE, priority 2003, published 2007).

The subject of assay [1] is NO production of HSMC. The experiment in a line: NO production, DAF-2 fluorescence assay, HSMC. In kind it is cell-based, human. An excerpt: In addition to its vasodilating feature, NO has antiatherosclerotic properties, such as prevention of platelet aggregation, leukocyte adhesion, smooth muscle cell proliferation, and the expression of genes involved in atherogenesis. In this study, the human aortic smooth muscle cells (HSMC) and human aortic endothelia cells (HEC) were used to determine if avenanthramides can influence the NO production level. Synthetic Av-C was used in this experiment. The quantification of NO production was performed by the 4,5 diaminofluorescein (DAF-2) fluorescence assay. Briefly, cells were seeded into 24-well plate and let them grow to 90% confluent condition. The cells were pretreated with different concentrations of Avenanthramide for 24 h. The culture medium was then changed to PBS containing 100 μM L-arginine, 1 μM bradykinin and L-NAME. Then 0.1 μM of DAF-2 was added to each well. After another 2 h of incubation, 200 μL of supernatants were transferred to black microplates and the fluorescence was measured with a fluorescence microplate reader calibrated for excitation at 485 nm and emission at 538 nm.

The subject of assay [2] is U937 cells. The experiment in a line: Hydrogen peroxide-induced ROS production in U937 cells (DCHF). In kind it is cell-based, human. Particulars: 18 h pretreatment. As for the experimental part:
Pretreatment of H2O2-stimulated U937 cells with 1, 5, and 10 μM of Avn reduced the ROS production by 22, 50, and 76%, respectively, indicating the inhibitory effect is dose-dependent.

For assay [3], the system named is eNOS mRNA. The experiment in a line: eNOS mRNA expression level by real time PCR. The assay is classed as cell-based, human. As for the experimental part: Since NO is catalyzed by endothelium nitric oxide synthases (eNOS), the role of Avenanthramide in induction of eNOS expression level by real time PCR was examined. Total mRNA was extracted using RNesy Mini Kit (QIAGEN) and quantified spectrophotometrically at 260 nm. Twenty μl of first-strand cDNA was synthesized from 1.5 μg of total RNA by using 300 ng of random hexanucleotide primers and 200u of SuperScript II (Invitrogen) at 42 C. for 1 h followed by heat inactivation of reverse transcriptase at 70 C. for 15 min. Fifty μL of PCR reaction mixture contained 5 μL cDNA, up- and down-stream primers (200 nM) and 25 μL of SYBR Green was set up into the ABI 4400 to perform the amplification for 40 cycles with denaturation at 95 C. for 30 sec, annealing at 60 C. for 1 min and extension at 72 C. for 1 min. Primers designed based on the published gene sequences were synthesized from Tufts University Core Facility. The primer sequences used for eNOS were:
Beta-actin mRNA expression level as an internal control. […] The enhancing effect is dose-dependent and the pattern is consistent with the results from NO production (FIG. 3).
(Real-time PCR tracks product formation cycle by cycle.)

For assay [4], the system named is VCAM-1. As to the kind of experiment: HASMC expression of VCAM-1. The assay is classed as cell-based, human.
In assay [5] the test system is p21cip1. As to the kind of experiment: p21cip1 expression Western blot, A10 cells. The note with it: 10% FBS, 20 h, highest level at 120 μM. The assay is classed as cell-based, rat. As for the experimental part:
Protein from 5×10^4 cells was subjected to electrophoresis on 7.5-10% SDS-polyacrylamide gels and electro-transferred to nirocellulose membrane. Nonspecific binding was blocked by incubating with Tris-buffered saline (TBS) [137 mM NaCl, and 15 mM Tris-HCl (pH 7.6)] containing 5% non-fat milk (w/v) for 1 h at room temperature and then probed with primary antibody against p53, p21, p27, cyclin D1 and pRb overnight. After washing in TBS-Tween 20 buffer (0.075% v/v), the membranes were incubated with horseradish peroxidase-conjugated anti-IgG antibody. Proteins bound to the primary antibodies were detected with ECL detection reagents.
Cyclin-dependent kinase (cdk) inhibitors play important roles in cell cycle progression. P21cip1 is the main target of p53 medicated cell cycle inhibition. […] The effect of Avn on this CDK inhibitor p21cip1 protein expression was determined by Western blotting. A10 cells were synchronized by growning in FBS-free medium for 24 h. The cells were then stimulated with 10% FBS in the absence or presence of different concentrations of substantially purified Avn-C. After 20 h, total cell lysates were prepared and subjected to SDS-PAGE followed by Western blot analysis to detect p21cip and p27kip. β-Actin expression was used as loading control. […]
On the technique in general: Immunoblotting shows a protein as a band on a membrane.

Assay [6] concerns p53. As to the kind of experiment: Half life of p53 protein, cycloheximide chase, A10 cells. The assay is classed as cell-based, rat. As for the experimental part:
At 80% confluence, A10 cells seeded into 100 mm culture dishes and were treated with different concentrations of Av (0, 40, 80 and 120 μM) for 24 h. Following Avn treatment, the total cell extracts were harvested with 2× protein sample buffer [0.14 M Tris/HCl (pH 6.8), 22.4% glycerol, 6% SDS, 0.02% […], and 10% β-mercaptoethanol] by scraping the cells. The genomic DNA is sheared by passing through a 21-gauge syringe several times. The homogenized cell lysates were boiled for 5 min and centriftiged at 12,000 rpm for 5 min. Protein half life studies are performed as described before. Briefly, cells were treated with Avn for 4-6 h. […] Cells were harvested in 2× protein sample buffer at 0, 30, 60 and 120 min after cycloheximide addition. Protein samples were analyzed by Western blot.
P53 protein level is mainly regulated at a posttranslational level, usually via control of protein stability. To determine whether increased protein stability might play a role in the increased p53 levels induced by Avn treatment observed in this study, the change in half life of p53 protein in Avn-treated and nontreated cells was explored. […] Whole cell extract was prepared at different time points (0, 30 and 60 min.) and p53 protein levels were measured by Western blot. […]

In the case of `O=C(/C=C/c1ccc(O)c(O)c1)Nc1ccc(O)cc1C(=O)O` [Avn-C, Avenanthramide C], the “increase of NO production” value in assay [1] (80 μM, HASMC) worked out at 2.1 fold. For the same compound, the “increase in NO production compared with control” value in assay [1] (120 μM, 24 h, HSMC) was 3.0 folds. For the same compound, the “reduction of H2O2-induced ROS production” value in assay [2] (1 μM) came out at 22%; in assay [2] (5 μM), 50%; in assay [2] (10 μM), 76%. The “increase of eNOS mRNA expression level” value in assay [3] (80 μM, HASMC) was determined as 3.5 fold. In addition, the “Fold Change, eNOS mRNA expression level” value in assay [3] (Av. Con. 40 μM) amounted to 1.56; in assay [3] (Av. Con. 80 μM), 2.39. The “ΔCt eNOS-β-actin” value was found to be 7.0 ± 0.51 in assay [3] (Av. Con. 40 μM) and 6.41 ± 0.48 in assay [3] (Av. Con. 80 μM). In assay [4], the “HASMC expression of VCAM-1” value is listed as “not affected”. Also, in assay [5], the p21 expression level entry is recorded as “increased significantly”. In addition, in assay [6] (80 uM for 6 h, then 15 μg/mL cycloheximide), the “p53 protein remaining after 1 h of cycloheximide treatment” value is “More than half”. In assay [6] (A10 cells (untreated about 20 min)), the “half-life of p53” value was “more than 1 h”.
